Laboratory results reported in paper PMC6141003 (Biochimie, 2017).

What was measured:
GLUT1 [1] = biological target: T1, GLUT1 (Mus musculus, UniProt P17809); experiment: [3H]-2-deoxyglucose uptake in L929 fibroblasts; assay type: cell-based
T1 sequence (P17809 1-492): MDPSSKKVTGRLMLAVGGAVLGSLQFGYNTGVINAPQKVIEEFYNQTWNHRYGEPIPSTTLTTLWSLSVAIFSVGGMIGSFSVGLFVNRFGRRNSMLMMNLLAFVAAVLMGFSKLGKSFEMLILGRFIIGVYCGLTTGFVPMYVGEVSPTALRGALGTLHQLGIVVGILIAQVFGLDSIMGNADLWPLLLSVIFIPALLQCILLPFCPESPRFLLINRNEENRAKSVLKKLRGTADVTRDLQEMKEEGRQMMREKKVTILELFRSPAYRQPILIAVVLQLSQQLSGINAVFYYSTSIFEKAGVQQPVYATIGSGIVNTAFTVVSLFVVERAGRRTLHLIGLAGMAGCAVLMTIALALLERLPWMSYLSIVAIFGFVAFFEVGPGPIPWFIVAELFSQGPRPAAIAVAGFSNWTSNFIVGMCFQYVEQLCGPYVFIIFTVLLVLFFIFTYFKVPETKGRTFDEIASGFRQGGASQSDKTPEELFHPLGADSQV

GLUT1 [2] = biological target: T1, GLUT1; experiment: dose-dependent competition of [3H]-2DG uptake in L929 fibroblasts; assay type: cell-based

Row | Structure (SMILES) | IC50 (GLUT1 [1]) [mM] | dose-dependent competition of [3H]-2DG uptake in L929 fibroblasts (GLUT1 [2])
1 | Cn1c(=O)c2c(ncn2C)n(C)c1=O [caffeine] | ~1.4 | –
2 | OC[C@H]1OC(O)[C@H](O)[C@@H](O)[C@@H]1O (some centres unmarked) [glucose] | – | glucose reduces 2DG uptake in a dose-dependent manner, and that caffeine adds to the inhibitory effects of glucose
